Here are results for 122 molecules from a melting point compilation (Tetko et al.).

For orientation: melting point means the temperature, or range, at which the solid turns liquid.

In the case of `O=C(O)c1coc2ccccc12`, the melting point lay in the range of 150 to 152 °C.
The result for `Cc1c(N)cccc1C(=O)N1CCOCC1` reads 106 to 108 °C; that for `Nc1ccc(Oc2ccc(Br)cc2)cc1`, 58 to 60 °C.
The figure for `O=C1c2ccccc2C(=O)N1CC(O)CN1C(=O)c2ccccc2C1=O` is 206 to 208 °C; for `CCCc1ccc(S(N)(=O)=O)cc1` it is 208 to 210 °C; for `O=C(O)Cc1cc(Cl)ccc1Br` it is 101 to 103 °C.
In turn, `CN(C)c1nc(Cl)c(C=O)s1` yielded a melting point of 109 to 111 °C.
Turning to `Cc1nn(CC(F)(F)F)c(C)c1CC(=O)O`, the melting point was 157 to 159 °C.
In turn, `Cc1ccc([N+](=O)[O-])c(OCCC(=O)O)c1` yielded a melting point of 134 to 136 °C.
For the molecule `CCc1nc(C(=O)O)c[nH]1`, the melting point fell in the range of 239 to 241 °C.
The figure for `O=C(O)Cc1cn(-c2ccccc2)nc1-c1ccc(F)cc1` is 145 to 147 °C.
The figure for `N#Cc1cnn2cc(C=O)cnc12` is 222 to 224 °C.
The figure for `CCc1cc(N)c2cc(N)ccc2n1` is 151 to 153 °C; for `O=C(O)c1ccc(Oc2ccc(F)cc2)cc1` it is 170 to 174 °C; for `CCOC(=O)c1cnn(C)c1NC(=O)CCl` it is 90 to 92 °C.
Take `CC1=NOC(=O)C1CCC(=O)O` (configuration not stated): the melting point was 139 to 141 °C.
The result for `CCN(c1ccccc1)S(=O)(=O)c1ccc(NN)nc1` reads 175 to 177 °C; that for `COC(=O)c1csc([N+](=O)[O-])c1`, 77 to 79 °C; that for `CON(C)S(=O)(=O)c1ccc(C(=O)O)cc1`, 210 to 212 °C.
The figure for `CC(C)CNC(=O)C(C)Nc1cccc(Br)c1` (configuration not stated) is 92 to 94 °C; for `Nc1nc(-c2ccc(NC(=O)c3ccccc3)cc2)cs1` it is 216 to 218 °C; for `ClCc1nnnn1CC1CC1` it is 30 to 32 °C.
The result for `Nc1c(I)cc(I)cc1I` reads 187 to 189 °C.
For `CN(C)Cc1cccc(N)c1`, the melting point lay within 40 to 42 °C.
The figure for `O=C1NCCCN2CCCC12` (configuration not stated) is 120 to 122 °C.
The result for `O=C(O)c1cc([N+](=O)[O-])c(Br)cc1F` reads 152 to 154 °C.
The figure for `O=S1(=O)CCC2(CC1)CO2` is 168 to 170 °C.
For the molecule `Cc1csc(Sc2ccc(N)cc2Cl)n1`, the melting point fell in the range of 112 to 114 °C.
The figure for `CCCn1c(N)cc(=O)n(C)c1=O` is 166 to 168 °C; for `CC(C)c1cc(=O)oc2cc(O)ccc12` it is 77 to 79 °C; for `CN(c1ccccc1C(=O)O)S(C)(=O)=O` it is 146 to 148 °C.
The figure for `O=C(O)c1noc(-c2ccc(F)cc2)n1` is 129 to 131 °C; for `Cn1cnnc1Sc1ccc(C=O)cc1[N+](=O)[O-]` it is 171 to 173 °C.
`CC(C)(C)OC(=O)NCc1cc[nH]n1`: the melting point fell in the range of 104 to 106 °C.
The result for `COc1ccc(CNC(=O)C(C#N)=CN(C)C)cc1` reads 128 to 130 °C; that for `NCC1(C(N)=O)CCOCC1`, 113 to 115 °C; that for `NNC(=O)c1ccc2c(c1)OCCO2`, 142 to 144 °C.
`CSc1noc(N)n1`: the melting point was 100 to 102 °C.
Take `Cn1cc(N2CCC(N)C2=O)cn1` (configuration not stated): the melting point was 131 to 133 °C.
The result for `O=c1ccc(-c2ccccc2)n[nH]1` reads 201 to 204 °C.
The result for `Cc1cc(S(=O)(=O)c2ccc(O)c(C)c2)ccc1O` reads 273 to 276 °C.
The result for `Cc1ccc(Nc2cccc(C(=O)O)c2)nn1` reads 279 to 281 °C.
The molecule `Cc1sc2[nH]c(=O)oc(=O)c2c1C` had a melting point of 199 to 201 °C.
`N#Cc1c(Cl)cccc1Oc1cccc(C(=O)O)c1` showed a melting point of 239 to 241 °C.
The figure for `CSCC[C@H](N)C(=O)NO` is 148 to 150 °C; for `Cc1oc2c(F)c(F)c(F)c(F)c2c1C(=O)O` it is 206 to 208 °C.
Turning to `Cn1cc(CN=[N+]=[N-])c(-c2ccc(C#N)cc2)n1`, the melting point lay in the range of 101 to 103 °C.
The result for `COc1cccc2cc(C=O)oc12` reads 45 to 47 °C; that for `CC(NC(=O)OCC(F)(F)F)c1nncn1C` (configuration not stated), 103 to 105 °C.
The result for `O=C(O)Cc1ccc(NC(=O)C2CC2)cc1` reads 189 to 191 °C; that for `CCOC(=O)c1[nH]ncc1C=O`, 168 to 170 °C.
Turning to `CCn1c(SCC(=O)O)nnc1-c1ccco1`, the melting point was in the range of 173 to 175 °C.
The result for `COc1ccc(-c2nn(-c3ccccc3)cc2C(=O)O)cc1` reads 244 to 246 °C; that for `CCNC(=O)NCc1ccc(N)cc1`, 120 to 122 °C.
The figure for `Nc1cc(Cl)n[nH]1` is 93 to 95 °C; for `O=C(O)c1ccccc1N1CCOCC1` it is 58 to 60 °C.
The figure for `COC(=O)c1cc2ccccn2c1` is 94 to 96 °C; for `Oc1cccc(CNC2CC2)c1` it is 125 to 127 °C.
The molecule `N#CCOc1cc(F)ccc1N` gave a melting point of 59 to 61 °C.
Molecule `Nc1cccc2c1CN(c1nccs1)C2` came in with a melting point of 119 to 121 °C.
The result for `Nc1ccn(Cc2cn3ccccc3n2)n1` reads 144 to 146 °C; that for `O=C(c1cccnc1)c1c[nH]c2ccccc12`, 212 to 214 °C.
The figure for `COc1ccc(-c2nnn(CC(=O)O)n2)cc1OC` is 259 to 261 °C; for `COc1ccc(C(=O)O)cc1S(=O)(=O)N1CCOCC1` it is 218 to 220 °C; for `CS(=O)(=O)c1cc(C(=O)O)c(Cl)cc1Cl` it is 210 to 212 °C.
The figure for `O=C(O)c1ccc(-c2noc(-c3ccc(F)cc3)n2)cc1` is 291 to 293 °C; for `O=c1c2ccccc2ncn1CCBr` it is 105 to 107 °C; for `Nc1ccc(NC(=O)c2ccccc2I)cc1` it is 143 to 145 °C.
Regarding `CNS(=O)(=O)c1cccc(C(=O)O)c1`, the melting point is 209 to 211 °C.
The figure for `Cc1ccc(OCCCC(=O)O)cc1C` is 90 to 92 °C; for `O=C1CNc2ccccc2C(=O)N1` it is 207 to 209 °C; for `CN(C)C(=O)CC(=O)O` it is 70 to 72 °C.
The result for `CCOC(=O)c1ccc(C(=O)O)nc1C` reads 88 to 90 °C; that for `N#Cc1c(C(F)(F)F)cc(=O)[nH]c1SCC(=O)O`, 200 to 204 °C; that for `O=C(O)CC(O)(c1ccccc1)C1CC1` (configuration not stated), 105 to 107 °C.
As for `CC(=O)c1ccc(CC(=O)O)cc1`, the melting point was in the range of 109 to 111 °C.
In the case of `CCn1nc(C(C)C)cc1C(=O)O`, the melting point fell in the range of 115 to 117 °C.
The figure for `O=[N+]([O-])c1cc(Br)cc(S(=O)(=O)Cl)c1` is 47 to 49 °C; for `CCOC(=O)c1nnc2ccccc2c1N` it is 239 to 241 °C.
The result for `Cc1ccc(-n2nc(C)c(C(=O)O)n2)c(C)c1` reads 178 to 180 °C.
The molecule `O=c1[nH]c2ccc(NCc3ccc(F)cc3)cc2[nH]1` had a melting point of 251 to 253 °C.
Regarding `CCN(CC)C(C(N)=O)c1ccccc1` (configuration not stated), the melting point is 141 to 143 °C.
The result for `CC(O)(C(=O)O)c1ccc(F)cc1` (configuration not stated) reads 89 to 91 °C; that for `CC(=O)N(c1nc(C=O)cs1)C1CC1`, 112 to 114 °C; that for `N#CC1(C(=O)O)CCC1`, 64 to 66 °C.
The figure for `CC(N)c1nc(-c2ccccc2)c[nH]1` (configuration not stated) is 129 to 131 °C; for `Nc1cc(-c2c(F)cccc2F)no1` it is 114 to 116 °C.
Turning to `ClCc1cnc(-c2ccccc2)s1`, the melting point is 57 to 59 °C.
The result for `Cc1cc(C(N)C(=O)O)ccc1Cl` (configuration not stated) reads 218 to 220 °C.
The result for `N#Cc1ccc(N2CCCC(N)C2=O)cc1` (configuration not stated) reads 101 to 103 °C.
The result for `NC(=O)c1ccc(-c2csc(N)n2)cc1` reads 250 to 252 °C; that for `ON=C1CCC1`, 82 to 84 °C.
As for `CC(C(=O)O)N1C(=O)C2C3CCC(O3)C2C1=O` (configuration not stated), the melting point was in the range of 189 to 191 °C.
Consider `CC(=O)c1cccc(OC(C)C(=O)O)c1` (configuration not stated), for which the melting point is 93 to 95 °C.
The result for `CCN(CC)S(=O)(=O)c1ccc(N2CCNCC2)c([N+](=O)[O-])c1` reads 131 to 133 °C.
The result for `CN(C)C=Nc1[nH]ncc1C#N` reads 159 to 161 °C; that for `O=C(O)CCc1ccccc1OC(F)(F)F`, 49 to 51 °C.
The figure for `Cn1cc(S(=O)(=O)Cl)cc1C(=O)C(Cl)(Cl)Cl` is 158 to 160 °C; for `O=C(O)c1conc1-c1ccc(Cl)cc1` it is 182 to 184 °C; for `COC1CCN(C(=O)Nc2cccc(C(C)=O)c2)CC1` it is 104 to 106 °C.
`Nc1cc([N+](=O)[O-])ccc1OC(F)F` yielded a melting point of 75 to 77 °C.
The molecule `ClCc1csc(-c2ccco2)n1` yielded a melting point of 76 to 78 °C.
The result for `O=C(O)C1CCN(C(=O)C2CC2)CC1` reads 211 to 213 °C.
The figure for `CC(=O)NCC(O)c1ccccc1` (configuration not stated) is 119 to 121 °C; for `Cc1cc(N)nn1-c1ccccc1` it is 79 to 81 °C; for `C=CCN1C(=O)c2ccc(C(=O)O)cc2C1=O` it is 154 to 156 °C.
The result for `CCOc1ccc(C(C)=O)cc1OCC` reads 49 to 51 °C; that for `CC(=O)NCc1ccc(C(=O)CCl)s1`, 143 to 145 °C; that for `COC(=O)C1=NN(c2cccc(C(=O)O)c2)C(=O)C1CCO` (configuration not stated), 211 to 213 °C.
On to `Fc1ncccc1OCc1ccccc1`, for which the melting point lay in the range of 34 to 36 °C.
The figure for `CC(C)NC(=O)Nc1ccc(O)c(C(=O)O)c1` is 192 to 194 °C.
The result for `O=C(O)Cc1ccn(-c2ccccc2)n1` reads 99 to 101 °C; that for `O=C(CCl)N1c2ccccc2SCC1c1ccccc1` (configuration not stated), 162 to 164 °C.
The figure for `Cc1noc(-c2ccnc(Cl)c2)n1` is 65 to 67 °C; for `Cn1cnc(S(=O)(=O)NCC(=O)O)c1` it is 211 to 213 °C.
Consider `Cc1nnc(-c2cccc(N)c2)n1C`, for which the melting point lay in the range of 189 to 191 °C.
On to `CC(C)(C)C1CCc2[nH]c3ccc(Cl)cc3c2C1` (configuration not stated), for which the melting point fell in the range of 107 to 109 °C.
The figure for `Cc1ccc(C(NC(=O)CCl)c2cccs2)cc1` (configuration not stated) is 110 to 112 °C.
The figure for `COC(=O)c1cc(-c2cccs2)ccc1N` is 89 to 91 °C; for `O=S(=O)(c1ccc2c(c1)CCN2)N1CCCCC1` it is 171 to 173 °C.
The figure for `COc1csc(C(=O)O)c1` is 167 to 169 °C; for `COC(=O)c1cc(S(N)(=O)=O)ccc1F` it is 97 to 99 °C.
